Experimental data: patent US5409933A, “Quinoline derivatives and processes for preparing the same” (priority 1993, dated 1995)
Structures can show the parent of a compound that is named as a salt. Where two headings read alike, the source gives them in different places.

What was measured:
Experiment in all cases: In Vitro Anti-Bacterial Activity Test (MIC, agar dilution)
Assay type in all cases: cell-based
Escherichia coli DC0 = settings: Muller-Hinton agar, 37° C., 18 hours, read-out: MIC
In short: (§1)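 Bacterial suspensions of 10^7 C.F.U./ml are inoculated onto Muller-Hinton agar containing graded compound levels. After 18 hours at 37° C., the lowest level showing no growth is recorded as MIC.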

Escherichia coli DC2 = settings: Escherichia coli, DC2, 18 h
In short: as §1

Escherichia coli 078 = system: Escherichia coli 078
In short: as §1

[1] = system: Staphylococcus aureus 503; settings: Staphylococcus aureus 503; Muller-Hinton agar, 37° C., 18 hours; read-out: MIC
In short: as §1

Klebsiella oxytoca 1082E = settings: Klebsiella oxytoca 1082E; Muller-Hinton agar, 37° C., 18 hours; read-out: MIC
In short: as §1

Escherichia coli 1507E = settings: Escherichia coli, 1507E, 18 h, Muller-Hinton agar, 37° C.
In short: as §1

[2] = system: Staphylococcus aureus SG511; settings: Staphylococcus aureus SG511; Muller-Hinton agar, 37° C., 18 hours; read-out: MIC
In short: as §1

Escherichia coli TEM = settings: Escherichia coli, 18 h, Muller-Hinton agar, 37° C.
In short: (§2)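 Muller-Hinton agar dilution method. Inoculum 10^7 C.F.U./ml; 37° C., 18 h. Endpoint: minimum inhibitory concentration by growth inspection. Ciprofloxacin control.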

[3] = system: Pseudomonas aeruginosa 1771M; settings: Pseudomonas aeruginosa, 1771M, 18 h, Muller-Hinton agar, 37° C.
In short: as §1

[4] = system: Streptococcus pyogenes 77A
In short: as §1

[5] = system: Streptococcus pyogenes 308A; settings: Muller-Hinton agar, 37° C., 18 hours, read-out: MIC
In short: as §1

[6] = system: Pseudomonas aeruginosa 9027; settings: Muller-Hinton agar, 37° C., 18 hours, read-out: MIC
In short: as §1

[7] = system: Enterobacter cloacae 1321E
In short: as §1

[8] = system: Streptococcus faecium MD8b; settings: Enterococcus faecium, Muller-Hinton agar, 37° C., 18 hours, read-out: MIC
In short: as §1

[9] = system: Pseudomonas aeruginosa 1592E; settings: Muller-Hinton agar, 37° C., 18 hours, read-out: MIC
In short: as §1

Enterobacter cloacae P99 = settings: Enterobacter cloacae, P99, 18 h
In short: as §2

[10] = system: Pseudomonas aeruginosa 1771; settings: Pseudomonas aeruginosa 1771; Muller-Hinton agar, 37° C., 18 hours; read-out: MIC
In short: as §1

Salmonella typhimurium = settings: Salmonella enterica; Salmonella typhimurium; Muller-Hinton agar, 37° C., 18 hours; read-out: MIC
In short: as §1

[11] = system: Klebsiella aerogenes 1522E; settings: Klebsiella aerogenes, 1522E, 18 h, Klebsiella aerogenes 1522E; Muller-Hinton agar, 37° C., 18 hours; read-out: MIC
In short: as §1

[12] = system: Staphylococcus aureus 285; settings: Staphylococcus aureus, 285, 18 h, Staphylococcus aureus 285; Muller-Hinton agar, 37° C., 18 hours; read-out: MIC
In short: as §1

[13] = Escherichia coli 078, Muller-Hinton agar, 37° C., 18 hours, read-out: MIC
[14] = Streptococcus pyogenes 77A, Muller-Hinton agar, 37° C., 18 hours, read-out: MIC
[15] = Enterobacter cloacae 1321E, Muller-Hinton agar, 37° C., 18 hours, read-out: MIC
[16] = Enterobacter cloacae, 1321E, 18 h

SMILES | MIC (Escherichia coli DC0) | MIC (Escherichia coli DC2) | MIC [1] | MIC (Klebsiella oxytoca 1082E) | MIC (Escherichia coli 1507E) | MIC [2] | MIC (Escherichia coli TEM) | MIC [3] | MIC [4, 14] | MIC [5] | MIC [6] | MIC [7, 15] | MIC [8] | MIC [9] | MIC (Enterobacter cloacae P99) | MIC [10] | MIC (Salmonella typhimurium) | MIC [11] | MIC [12] | MIC (Escherichia coli 078; Escherichia coli, 078, 18 h) | other results
NCC1CCN(c2c(F)cc3c(=O)c(C(=O)C[N+](=O)[O-])cn(C4CC4)c3c2Cl)C1 (stereo not drawn) [Example 53, 1-cyclopropyl-6-fluoro-8-chloro-7-(3-aminomethylpyrrolidin-1-yl)-3-(2-nitroacetyl)-1,4-dihydro-4-oxoquinoline hydrochloride] | 0.195 mg/L | 0.049 mg/L | 0.013 mg/L | < 0.002 mg/L | 0.025 mg/L | 0.013 mg/L | 0.013 mg/L | 0.195 mg/L | 0.049 mg/L | 0.098 mg/L | 0.781 mg/L | < 0.002 mg/L | 0.049 mg/L | 0.391 mg/L | 0.013 mg/L | 0.781 mg/L | 0.013 mg/L | 0.013 mg/L | 0.007 mg/L | – | MIC (Escherichia coli 078; [13]): < 0.002 mg/L
CCOC(=O)C(C(=O)OCC)C(=O)c1cn(C2CC2)c2c(Cl)c(N3CC[C@@H](NC)C3)c(F)cc2c1=O [Example 55, 1-cyclopropyl-6-fluoro-8-chloro-7-(3-3R-methylaminopyrrolidin-1-yl)-3-(2,2-diethoxycarbonylacetyl)-1,4-dihydro-4-oxoquinoline hydrochloride] | 0.391 mg/L | 0.098 mg/L | 0.195 mg/L | 0.025 mg/L | 0.025 mg/L | 0.098 mg/L | 0.025 mg/L | 0.195 mg/L | 0.391 mg/L | 1.56 mg/L | 1.56 mg/L | 0.049 mg/L | 0.391 mg/L | 0.391 mg/L | 0.025 mg/L | 0.391 mg/L | 0.013 mg/L | 0.049 mg/L | 0.195 mg/L | 0.013 mg/L | –
CCOC(=O)C(C(=O)OCC)C(=O)c1cn(C2CC2)c2c(Cl)c(N3CC[C@H](NC)C3)c(F)cc2c1=O [Example 56, 1-cyclopropyl-6-fluoro-8-chloro-7-(3-3S-methylaminopyrrolidin-1-yl)-3-(2,2-diethoxycarbonylacetyl)-1,4-dihydro-4-oxoquinoline hydrochloride] | 0.195 mg/L | 0.049 mg/L | 0.098 mg/L | 0.013 mg/L | 0.013 mg/L | 0.049 mg/L | 0.013 mg/L | 0.098 mg/L | 0.195 mg/L | 0.781 mg/L | 0.781 mg/L | 0.049 mg/L | 0.195 mg/L | 0.391 mg/L | 0.013 mg/L | 0.391 mg/L | 0.007 mg/L | 0.049 mg/L | 0.098 mg/L | 0.007 mg/L | –
CCOC(=O)C(C(=O)OCC)C(=O)c1cn(C2CC2)c2c(Cl)c(N3CCC(NC)C3)c(F)cc2c1=O (stereo not drawn) [Example 57, 1-cyclopropyl-6-fluoro-8-chloro-7-(3-methylaminopyrrolidin-1-yl)-3-(2,2-diethoxycarbonylacetyl)-1,4-dihydro-4-oxoquinoline hydrochloride] | 0.049 mg/L | 0.025 mg/L | 0.195 mg/L | 0.049 mg/L | 0.013 mg/L | 0.049 mg/L | 0.013 mg/L | 0.195 mg/L | 0.195 mg/L | 0.781 mg/L | 1.56 mg/L | 0.049 mg/L | 0.098 mg/L | 0.781 mg/L | 0.013 mg/L | 0.391 mg/L | 0.013 mg/L | 0.049 mg/L | 0.195 mg/L | 0.007 mg/L | –
CCOC(=O)C(C(=O)OCC)C(=O)c1cn(C2CC2)c2c(OC)c(N3CC[C@@H](NC)C3)c(F)cc2c1=O [Example 58, 1-cyclopropyl-6-fluoro-8-methoxy-7-(3-3R-methylaminopyrrolidin-1-yl)-3-(2,2-diethoxycarbonylacetyl)-1,4-dihydro-4-oxoquinoline hydrochloride] | 1.56 mg/L | 0.195 mg/L | 0.195 mg/L | 0.049 mg/L | 0.391 mg/L | 0.195 mg/L | 0.098 mg/L | 0.781 mg/L | 1.56 mg/L | 1.56 mg/L | 1.56 mg/L | 0.098 mg/L | 1.56 mg/L | 1.56 mg/L | 0.098 mg/L | 1.56 mg/L | 0.195 mg/L | 0.195 mg/L | 0.195 mg/L | 0.098 mg/L | –
CCOC(=O)C(C(=O)OCC)C(=O)c1cn(C2CC2)c2c(OC)c(N3CCC(NC)C3)c(F)cc2c1=O (stereo not drawn) [Example 60, 1-cyclopropyl-6-fluoro-8-methoxy-7-(3-methylaminopyrrolidin-1-yl)-3-(2,2-diethoxycarbonylacetyl)-1,4-dihydro-4-oxoquinoline hydrochloride] | 0.781 mg/L | 0.098 mg/L | 0.098 mg/L | 0.013 mg/L | 0.195 mg/L | 0.195 mg/L | 0.098 mg/L | 0.781 mg/L | – | 1.56 mg/L | 1.56 mg/L | 0.098 mg/L | 0.781 mg/L | 1.56 mg/L | 0.098 mg/L | 1.56 mg/L | 0.098 mg/L | 0.195 mg/L | 0.195 mg/L | 0.098 mg/L | MIC ([4]; Streptococcus pyogenes, 77A, 18 h): 0.781 mg/L
CN[C@@H]1CCN(c2c(F)cc3c(=O)c(C(=O)C[N+](=O)[O-])cn(C4CC4)c3c2Cl)C1 [Example 61, 1-cyclopropyl-6-fluoro-8-chloro-7-(3-3R-methylaminopyrrolidin-1-yl)-3-(2-nitroacetyl)-1,4-dihydro-4-oxoquinoline hydrochloride] | 0.049 mg/L | 0.013 mg/L | 0.025 mg/L | 0.004 mg/L | 0.007 mg/L | 0.013 mg/L | 0.007 mg/L | 0.098 mg/L | 0.098 mg/L | 0.391 mg/L | 0.195 mg/L | – | 0.098 mg/L | 0.195 mg/L | 0.007 mg/L | 0.195 mg/L | 0.004 mg/L | 0.013 mg/L | 0.025 mg/L | – | MIC (Escherichia coli 078; [13]): < 0.002 mg/L; MIC [7, 16]: 0.007 mg/L
CN[C@H]1CCN(c2c(F)cc3c(=O)c(C(=O)C[N+](=O)[O-])cn(C4CC4)c3c2Cl)C1 [Example 62, 1-cyclopropyl-6-fluoro-8-chloro-7-(3-3S-methylaminopyrrolidin-1-yl)-3-(2-nitroacetyl)-1,4-dihydro-4-oxoquinoline hydrochloride] | 0.025 mg/L | 0.013 mg/L | 0.013 mg/L | < 0.002 mg/L | 0.007 mg/L | 0.013 mg/L | 0.007 mg/L | 0.098 mg/L | 0.049 mg/L | 0.098 mg/L | 0.195 mg/L | – | 0.049 mg/L | 0.098 mg/L | 0.007 mg/L | 0.098 mg/L | 0.025 mg/L | 0.007 mg/L | 0.025 mg/L | – | MIC (Escherichia coli 078; [13]): < 0.002 mg/L; MIC [7, 16]: 0.007 mg/L
CNC1CCN(c2c(F)cc3c(=O)c(C(=O)C[N+](=O)[O-])cn(C4CC4)c3c2Cl)C1 (stereo not drawn) [Example 63, 1-cyclopropyl-6-fluoro-8-chloro-7-(3-methylaminopyrrolidin-1-yl)-3-(2-nitroacetyl)-1,4-dihydro-4-oxoquinoline hydrochloride] | 0.098 mg/L | 0.025 mg/L | 0.049 mg/L | 0.007 mg/L | 0.007 mg/L | 0.025 mg/L | 0.007 mg/L | 0.049 mg/L | 0.098 mg/L | 0.391 mg/L | 0.391 mg/L | 0.013 mg/L | 0.098 mg/L | 0.195 mg/L | 0.013 mg/L | 0.195 mg/L | 0.004 mg/L | 0.013 mg/L | 0.049 mg/L | – | MIC (Escherichia coli 078; [13]): < 0.002 mg/L
